Key:
IDO (SKOV-3 cells) = IDO (SKOV-3 cells) (Homo sapiens (Human), UniProt P14902); assay: IDO cell-based assay (kynurenine production in IFNγ-induced SKOV-3 cells); conditions: IFNγ 500 ng/ml, 500 μM L-Trp, 48 h, read-out: pIC50, IDO cellular assay (SKOV3) (converted)
Excerpt: (§1) For REF1-REF3 and Compounds 1-11, two different types of assay were employed: 1. An IDO biochemical coupled assay which utilised recombinantly produced and purified IDO enzyme in combination with the enzyme formamidase. This coupled enzyme system allowed conversion of N-formylkynurenine produced by IDO activity to kynurenine which was then quantified by fluorescence following addition of Erhlich's Reagent. 2. A cell-based assay for detecting the effect of test compounds on kynurenine production in cancer cells. This assay utilised cancer cells which expressed IDO and as such was used as a means of testing compound activity at the enzyme in a cell-based context. The protocols for these are set out below.
SKOV-3 ovary adenocarcinoma (ATCC) cells were grown in McCoys 5A+L-glutamax medium supplemented with 15% foetal bovine serum. On the day of assay, cells were detached using trypsin-EDTA (0.25% v/v), re-suspended in assay media (RPMI 1640 phenol red free+L-glutamine supplemented with 10% dialysed foetal bovine serum). SKOV-3 cells were seeded at 40K cells per well into 96-well plates containing test samples/vehicle control together with 500 μM L-Trp. Cells were then incubated for 48 h at 37° C. 5% CO2. IFNγ was also added at 500 ng/ml for the 48 h incubation in order to induce expression of IDO. Plates were centrifuged and the supernatant was removed and incubated for 5 min in the presence of 1% Erhlich's reagent. Kynurenine levels were then quantified by measuring absorbance at 490 nm.

hIDO1 = hIDO1 (Homo sapiens (Human), UniProt P14902); assay: IDO1 cellular assay in HEK293 cells transiently expressing hIDO1; assay type: cell-based; conditions: HEK293 cell line transiently expressing hIDO1, n=1
Chain of hIDO1 (P14902 whole entry): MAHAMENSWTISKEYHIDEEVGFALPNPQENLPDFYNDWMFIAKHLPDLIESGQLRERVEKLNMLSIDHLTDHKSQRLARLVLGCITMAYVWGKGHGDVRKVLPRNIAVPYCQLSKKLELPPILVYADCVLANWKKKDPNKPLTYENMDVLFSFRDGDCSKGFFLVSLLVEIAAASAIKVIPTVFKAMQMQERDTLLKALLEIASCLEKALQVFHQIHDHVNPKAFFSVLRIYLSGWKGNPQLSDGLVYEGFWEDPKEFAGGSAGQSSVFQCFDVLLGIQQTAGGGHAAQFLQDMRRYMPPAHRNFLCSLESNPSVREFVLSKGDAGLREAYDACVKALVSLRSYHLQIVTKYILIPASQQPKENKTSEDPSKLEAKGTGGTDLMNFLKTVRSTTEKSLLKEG
Protocol: Compounds to be tested were serially diluted in ten 3-fold steps in DMSO starting from 10 mM DMSO stocks. Compound dilutions or DMSO alone were then dispensed from the dilution plate into a Greiner black 384-well assay plate (catalog #781086) using an Echo 550 acoustic liquid handler (Labcyte).
HEK293 cell pellets were resuspended to 5×10^5 cells/mL in complete HEK293 culture media (89% DMEM, 10% FBS, 1% penicillin/streptomycin). Suspended cells (2 mL) were dispensed into each well of a 6-well Corning plate (Catalog#3516). Cells were allowed to attach and were incubated for 20 hours at 37 degrees Celsius in a 5% CO2 incubator. […]
Media was removed from the cells which were then washed with 2 mL Dulbecco's phosphate-buffered saline (DPBS). […] Plates were incubated at 37 degrees in a 5% CO2 incubator overnight to develop fluorescence. […] The resulting fluorescence was measured in an Envision plate reader (Perkin Elmer) with a 400/25 nm excitation filter and an 510/20 nm emission filter.
The fluorescence intensity of each well was corrected for the background observed in wells with untransfected cells and was expressed as a fraction of the intensity observed in wells of IDO1 transfected cells and DMSO only. Potencies were calculated by […] to the four parameter logistic IC50 equation.

human IDO protein = human IDO protein (Homo sapiens (Human), UniProt P14902); assay: IDO biochemical coupled assay (formamidase, Ehrlich's reagent); conditions: 0.17 μM human IDO, 120 min pre-incubation, 45 μM L-Trp; read-out: hIDO biochemical assay pIC50 (converted)
Chain of human IDO protein (P14902 whole entry): as above
Excerpt: as §1
0.17 μM of human IDO protein was pre-incubated for 120 min at RT with test compounds in the presence of 50 mM KPO4, pH 7.0, 0.5 mM EDTA, 0.5 mM EGTA, 0.05% Triton X-100, 20 mM ascorbate, 500 U/ml catalase, 10 μM methylene blue at RT in a 384 well plate. 0.05 μg/μl kynurenine formamidase and 45 μM L-tryptophan (L-Trp) were added and the assays were incubated at RT for 40 min. Assays were stopped and the level of kynurenine was determined by incubation with Ehrlich's reagent to a final concentration of 1.33% at RT for 5 min. Fluorescence intensity was read at 475 nm/530 nm.

Chain of IDO (SKOV-3 cells) (P14902 whole entry): as above

Compound	IC50 (IDO (SKOV-3 cells)) [nM]	IC50 (hIDO1) [nM]	IC50 (human IDO protein) [nM]
C[C@H]1C[C@@]1(NC(=O)c1cc2cc(Cl)ccc2[nH]1)c1cnn(-c2ccc(Cl)cc2)c1 (single isomer, unassigned) [Compound 10, enantiomer 2]	11.7		
C[C@@H]1C[C@]1(NC(=O)c1cc2cc(C#N)ccc2[nH]1)c1cnn(C)c1 (stereo in doubt) [Compound 12, 5-cyano-N-((1R,2R)-2-methyl-1-(1-methyl-1H-pyrazol-4-yl)cyclopropyl)-1H-indole-2-carboxamide]		202	
C[C@H]1C[C@@]1(NC(=O)c1cc2cc(C#N)ccc2[nH]1)c1cnn(-c2ccccc2)c1 (single isomer, unassigned) [Compound 9, enantiomer 2]	43.7		
C[C@H]1C[C@@]1(NC(=O)c1cc2cc(Br)ccc2[nH]1)c1cnn(C)c1 (racemic) [Compound 2, racemic]	31.6		398
C[C@H]1C[C@@]1(NC(=O)c1cc2cc(C#N)ccc2[nH]1)c1cnn(-c2ccccc2)c1 (single isomer, unassigned) [Compound 9, enantiomer 1]	77.6		
CCc1nn(C)cc1C1(NC(=O)c2cc3cc(Cl)ccc3[nH]2)CC1 [Compound 3]	89.1		
O=C(NC1(c2cnn(-c3ccccc3)c2)CC1)c1cc2cc(Cl)ccc2[nH]1 [Compound 5]	91.2		
CC(C)c1nn(C)cc1C1(NC(=O)c2cc3cc(Cl)ccc3[nH]2)CC1 [Compound 4]	87.1		
C[C@H]1C[C@@]1(NC(=O)c1cc2cc(Cl)ccc2[nH]1)c1cnn(-c2ccc(F)cc2)c1 (single isomer, unassigned) [Compound 11, enantiomer 1]	28.2		
Cn1cc(C2(NC(=O)c3cc4cc(Cl)ccc4[nH]3)CC2)cn1 [REF 1, reference compound]	126		
C[C@H]1C[C@@]1(NC(=O)c1cc2cc(Cl)ccc2[nH]1)c1cnn(-c2ccc(F)cc2)c1 (single isomer, unassigned) [Compound 11, enantiomer 2]	10		
C[C@H]1C[C@@]1(NC(=O)c1cc2cc(Cl)ccc2[nH]1)c1cnn(-c2ccc(Cl)cc2)c1 (single isomer, unassigned) [Compound 10, enantiomer 1]	34.7		
Cn1cc(C2(NC(=O)c3cc4cc(Br)ccc4[nH]3)CC2)cn1 [REF 3, reference compound]	182		
Cn1cc(C2(NC(=O)c3cc4cc(Br)cc(F)c4[nH]3)CC2)cn1 [Compound 6]	83.2		
CCn1cc(C2(NC(=O)c3cc4cc(Cl)ccc4[nH]3)CC2)cn1 [REF 2, reference compound]	186		

Source: patent publication US10336731B2, “Substituted 1H-indole-2-carboxamide compounds as indoleamine-2,3-dioxygenase inhibitors” (Merck Sharp & Dohme Corp., priority 2015, dated 2019)
